Assay results taken from patent US20240018132A1, “5-HYDROXY-1,4-NAPHTHALENEDIONE FOR USE IN THE TREATMENT OF CANCER” (GODAVARI BIOREFINERIES LIMITED, priority 2020, published 2024).
pIC50: −log10 of the molar value. “And” between values parts separate entries of the source, which are not always exact repeats. Equal values may be shown once. Read-outs that look alike come from different tables or passages of the source.

Columns and labels:
MDAMB231 [1] = assay: In vitro antiproliferative assay (MTT assay), breast cancer cell line; format: cell-based; conditions: MTT assay, breast cancer MDAMB231, 48 hrs drug incubation
Method in brief: (§1)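 Compound exposure lasted 48 h at 37 °C in 5% CO2, following a 24 h attachment period; DMSO stocks were 0.1 M. Metabolic reduction of MTT (0.5 mg/ml, 4 h), solubilized in DMSO, gave viability, plotted as log % viability versus log drug concentration.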

PC3 [2] = assay: In vitro antiproliferative assay (MTT assay), prostate cancer cell line; format: cell-based; conditions: MTT assay, prostate cancer PC3, 48 hrs drug incubation
Method in brief: as §1

MDAMB231 [3] = assay: Soft agar colony-formation assay, breast cancer; format: cell-based; conditions: for pIC50: Soft Agar Assay, 1 week, Alamar Blue; for anticancer activity in comparison with cisplatin, soft agar, breast cancer cell line: FIG. 51, MDAMB231
Experimental: (§2) The Soft Agar Colony-formation Assay is an anchorage-independent growth assay in soft agar, which is one of the most stringent assays for detecting malignant transformation of cells. For this assay, malignant cells are cultured with appropriate controls in soft agar medium for 1-2 weeks. Following this incubation period, formed colonies can either be analyzed morphologically using cell stain and quantifying the number of colonies formed.
(§3) Briefly, for Soft Agar Assay a mixture of 50 ul of 2× medium (taken appropriately as per cell line) and 50 ul of 1.2% Bacto Agar were plated on to each well of 96 well micro titer assay plate. 10 ul of cells (of specific plating efficiency pre standardized for respective cell line) were mixed with 20 ul of 2× medium and 30 ul of 0.8% of Bacto Agar and 1.6 ul of drug (of appropriate concentration) in a vial and transferred to the solidified pre layers of the assay plates. The cells were then allowed to grow and form colonies at 37° C. and 5% CO2 for 1 week. An intermittent feeding with 50 ul of appropriate 2× medium was performed after 3 days of experimental set up. 16 ul of Alamar Blue (1.5 mg/ml) was then added to all the wells to quantify the developed colonies. The plates were incubated for 24 hrs at 37° C. Absorbance was then measured at 630 nm. XY graph of log Percent viability was then plotted against log drug concentration.
(§4) Following plating efficiencies were standardized for Soft Agar Assay: […]

PC3 [4] = assay: Soft agar colony-formation assay, prostate cancer; format: cell-based; conditions: for pIC50: Soft Agar Assay, 1 week, Alamar Blue; for anticancer activity in comparison with cisplatin, soft agar, prostate cancer cell line: FIG. 52, PC3
Experimental: as §2, §3, §4

MDAMB231 [5] = assay: Wound Healing Assay (WHA), breast cancer cell line; format: cell-based; conditions: IC10 conc. of compound
Experimental: (§5) Wound Healing Assay (WHA) determines the ability of cancer stem cells to heal the wound formed in a confluent monolayer.
(§6) Procedure: 0.35×10^6 cells were plated in each well of 6 Tissue Culture well plates. The plate was incubated for 48 hrs at 37° C., 5% CO2. […] IC10 conc. of the respective compound was added into each well. The plates were incubated at 37° C., 5% CO2 and the width of scratch was measured at various time intervals such as 6, 24 and 48 hours. Average of 3 distances were taken for each time point using IS camera Measure. A plot of average width of scratch in micrometer was plotted against the time interval after treatment.

PC3 [6] = assay: Wound Healing Assay (WHA), prostate cancer cell line; format: cell-based; conditions: IC10 conc. of compound
Experimental: as §5, §6

[7] = tested on: Aldehyde dehydrogenase (ALDH); assay: Aldehyde Dehydrogenase (ALDH) assay, ELISA kit; format: cell-based; conditions: MDAMB231, 48 hrs
Text: Aldehyde dehydrogenases (ALDH) are a family of enzymes that catalyze the metabolism of exogenous and endogenous aldehydes, preventing the accumulation of potentially reactive and toxic aldehydes and their metabolites. In addition to their role in aldehyde metabolism, ALDH enzymes also play critical roles in other cellular processes such as cell proliferation, differentiation, and survival. ALDH also serves as a marker for certain stem cell populations including hematopoietic stem cells and certain cancer stem cells. ALDH concentration was determined by using ([…] Dx) ELISA kit by following protocol: • 1 Standards (50 μl)/sample (40 μl) were added to the respective wells, (except Blank). • 2. (10 μl) Antibody-Biotin conjugate was then added in each sample well (except Blank). • 3. (50 μl) of Horse Radish Peroxidase (HRP) Conjugate was then added to each well (except Blank). • 4. The plates were incubated for one hour at 37° C. in the incubator. • 5. Wash (4 times with wash buffer) and blot residual buffer by firmly tapping the plate on the absorbent paper. Wipe off any liquid from the bottom of the microtiter wells as any residue can interfere in the reading step. • 6. Add TMB substrate A (50 μl) and then TMB substrate B (50 μl) to each well including Blank as well. • 7. Incubate for 10 mins at 37° C. in dark. • 8. Add (50 μl) stop solution. Wells should turn from blue to yellow. • 9. Read absorbance at 450 nm. • 10 A X-Y graph of concentration vs optical density was plotted. ALDH concentration was calculated by substituting optical density values in the regression analysis equation.

MDAMB231 [8] = assay: In vitro sphere-forming assay (cancer stem cells), Mammosphere media; conditions: for 3D sphere count of MDAMB231: Mammosphere media, 2000 cells/well, n = 6 ± S.D; for viability at 0.0025 µM / viability at 0.025 µM / viability at 0.25 µM / viability at 2.5 µM / viability at 25 µM: Homo sapiens, MDA-MB-231, read-out: % Viability of spheres (MDAMB231)
Procedure: (§7) In Vitro Sphere-forming Assay: Sphere assay measures the ability of cancer stem cells (CSCs) to form spheres in specially designed serum-free medium.
(§8) Mammosphere Media Preparation (For 100 mL): 1 g methyl cellulose autoclaved with magnetic stirrer, 100 ml plain media (MEBM) was added and dissolved under magnetic stirring. After complete dissolution FGF-80 μL, EGF-40 μL, Penstrep-1 mL, Heparin-400 μL was added.
(§9) Procedure—The cells were trypsinised and made into single-cell suspension by passing through cell strainers (100 μl and 40 μl, respectively), The cells were diluted at a concentration of 2000 cells/100 μL and suspended in either Mammosphere (for breast cell lines) or Prostosphere (for prostate cell lines). 100 μL of this suspension was added into each well of 96-well suspension plates and incubated at 37° C., 5% CO2 for 24 hrs. Appropriate concentrations of the drugs (2 μL) were added into respective wells with 100 μL of stem cell culture medium. Plates were incubated at 37° C., 50 CO2 for 72 hrs. After incubation, 2.5 μL of the respective drug concentration and 50 μL of stem cell culture medium were added into each well and the plates were further incubated at 37° C., 50% CO2 for 72 hrs. 3 μL of the respective drug concentration was added with 50 μL of stem cell culture medium again after incubation and plates were reincubated for 72 hrs at 37° C., 50 CO2. Number of primary spheres formed for each concentration were counted. The spheres were converted to 0 viability of spheres compared to untreated (Growth Control with DMSO, GCD).

Human lymphocytes = assay: Lymphocyte assay (MTT on normal cells); format: cell-based; conditions: human peripheral blood lymphocytes, MTT procedure
Experimental: Human lymphocytes were isolated from the peripheral blood. A pure population of lymphocytes was obtained based on differential centrifugation, in which diluted defibrinated blood was layered on a solution of sodium diatrizoate and polysucrose (HiSep LSM 1077) and centrifuged at low speeds for 30 mins.
Procedure: The separation of lymphocytes from fresh defibrinated blood was performed by the procedure described below: • 1. Diluted defibrinated fresh blood was overlaid gradually on (HiSeP LSM1077) and centrifuged at low speed for 30 mins. • 2. The lymphocyte layer (the buffy coat) was carefully removed in a new collection tube. • 3. The buffy coat was given another wash, by the diluent buffer Dulbecco's phosphate buffered saline (D.P.B.S) • 4. The supernatant was discarded and the pellet was resuspended in D.P.B.S. • 5. The viability of cells was checked by Haemocytometer. • 6. Cells with purity and viability of more than 95% were taken for the experiment. • 7. Purified lymphocytes were diluted at a concentration of 0.7 million/ml with sterile D.P.B.S and MTT procedure was performed exactly as described earlier.

PC3 [9] = assay: In vitro sphere-forming assay (cancer stem cells), Prostosphere media; conditions: for viability at 0.0025 µM / viability at 0.025 µM / viability at 0.25 µM / viability at 2.5 µM / viability at 25 µM: Homo sapiens, PC-3, read-out: % Viability of spheres (PC3); for 3D sphere count of PC3: Prostosphere media, 2000 cells/well, n = 6 ± S.D
MDAMB231 [10] = conditions: human, 216 h
Procedure: as §7, §8, §9

PC3 [11] = conditions: human, 216 h
[12] = Homo sapiens, MDA-MB-231, 168 h

Row | pIC50 (PC3 [2]) | pIC50 (MDAMB231 [1]; Homo sapiens, MDA-MB-231, 48 h) | pIC50 (MDAMB231 [3]; [12]) | pIC50 (PC3 [4]; Homo sapiens, PC-3, 168 h) | Compound | pIC50 (MDAMB231 [1]) | % inhibition of Wound Healing for Breast Cancer Cell line (MDAMB231) after 48 hrs (MDAMB231 [5]) [%] | % inhibition of Wound Healing for Prostate Cancer Cell line (PC3) after 48 hrs (PC3 [6]) [%] | anticancer activity in comparison with cisplatin, soft agar, breast cancer cell line (MDAMB231 [3]) | anticancer activity in comparison with cisplatin, soft agar, prostate cancer cell line (PC3 [4]) | viability at 0.0025 µM (MDAMB231 [8]) [%] | 3D sphere count of MDAMB231 (MDAMB231 [8]; drug 0.0025 uM) | 3D sphere count of MDAMB231 (MDAMB231 [8]; drug 0.025 uM) | 3D sphere count of MDAMB231 (MDAMB231 [8]; drug 0.25 uM) | 3D sphere count of MDAMB231 (MDAMB231 [8]; drug 2.5 uM) | 3D sphere count of MDAMB231 (MDAMB231 [8]; drug 25 uM) | 3D sphere count of PC3 (PC3 [9]; drug 0.0025 uM) | 3D sphere count of PC3 (PC3 [9]; drug 0.025 uM) | 3D sphere count of PC3 (PC3 [9]; drug 0.25 uM) | 3D sphere count of PC3 (PC3 [9]; drug 2.5 uM) | 3D sphere count of PC3 (PC3 [9]; drug 25 uM) | other results
1 | 6.30 | 6.00 | 6.18 | 6.38 | COc1ccc(OC2=CC(=O)c3c(OCCN4CCOCC4)cccc3C2=O)cc1 [Formula 43, 5-(2-morpholinoethoxy)-2-(4-methoxyphenoxy) naphthalene-1,4-dione] |  | 53.3 | 50.47 | higher anticancer activity in comparison with cisplatin | higher anticancer activity in comparison with cisplatin | 82 | 82(±4) | 61(±3) | 46(±3) | 33(±4) | 21(±3) | 75(±4) | 57(±5) | 46(±4) | 30(±4) | 21(±3) | pIC50 (Human lymphocytes; Lymphocyte): 4.97; viability at 0.025 µM (MDAMB231 [8]): 61%; viability at 0.25 µM (MDAMB231 [8]): 46%; viability at 2.5 µM (MDAMB231 [8]): 33%; viability at 25 µM (MDAMB231 [8]): 21%; viability at 0.0025 µM (PC3 [9]): 75%; viability at 0.025 µM (PC3 [9]): 57%; viability at 0.25 µM (PC3 [9]): 46%; viability at 2.5 µM (PC3 [9]): 30%; viability at 25 µM (PC3 [9]): 21%
2 |  | 5.66 | 5.42 | 5.57 | O=C1C=C(N2CCOCC2)C(=O)c2c(OCCN3CCOCC3)cccc21 [Formula 73] |  |  |  | higher anticancer activity in comparison with cisplatin | higher anticancer activity in comparison with cisplatin | 87 | 62(±4) | 50(±3) | 36(±4) | 25(±3) | 14(±3) | 69(±2) | 55(±3) | 40(±3) | 29(±3) | 19(±3) | pIC50 (PC3 [2]; Homo sapiens, PC-3, 48 h): 5.52; Activity on Lymphocytes (IC50) (Human lymphocytes): No activity; viability at 0.025 µM (MDAMB231 [8]): 70%; viability at 0.25 µM (MDAMB231 [8]): 50%; viability at 2.5 µM (MDAMB231 [8]): 35%; viability at 25 µM (MDAMB231 [8]): 19%; viability at 0.0025 µM (PC3 [9]): 86%; viability at 0.025 µM (PC3 [9]): 68%; viability at 0.25 µM (PC3 [9]): 50%; viability at 2.5 µM (PC3 [9]): 36%; viability at 25 µM (PC3 [9]): 23%
3 | 5.66 |  |  |  | COc1ccc(OC2=CC(=O)c3c(OCCN4CCOCC4)cccc3C2=O)cc1 [Formula 81] | 6.20 |  |  |  |  |  | 82(±4) | 61(±3) | 46(±3) | 33(±4) | 21(±3) | 75(±4) | 57(±5) | 46(±4) | 30(±4) | 21(±3) | % Viability of spheres (MDAMB231) (MDAMB231 [10]; 0.0025 uM): 82(±4) %; % Viability of spheres (MDAMB231) (MDAMB231 [10]; 0.025 uM): 61(±3) %; % Viability of spheres (MDAMB231) (MDAMB231 [10]; 0.25 uM): 46(±3) %; % Viability of spheres (MDAMB231) (MDAMB231 [10]; 2.5 uM): 33(±4) %; % Viability of spheres (MDAMB231) (MDAMB231 [10]; 25 uM): 21(±3) %; % Viability of spheres (PC3) (PC3 [11]; 0.0025 uM): 75(±4) %; % Viability of spheres (PC3) (PC3 [11]; 0.025 uM): 57(±5) %; % Viability of spheres (PC3) (PC3 [11]; 0.25 uM): 46(±4) %; % Viability of spheres (PC3) (PC3 [11]; 2.5 uM): 30(±4) %; % Viability of spheres (PC3) (PC3 [11]; 25 uM): 21(±3) %

Row | Compound | pIC50 (PC3 [2]) | pIC50 (MDAMB231 [1]; Homo sapiens, MDA-MB-231, 48 h) | pIC50 (MDAMB231 [3]; [12]) | pIC50 (PC3 [4]; Homo sapiens, PC-3, 168 h) | pIC50 (MDAMB231 [1]) | % inhibition of Wound Healing for Breast Cancer Cell line (MDAMB231) after 48 hrs (MDAMB231 [5]) [%] | % inhibition of Wound Healing for Prostate Cancer Cell line (PC3) after 48 hrs (PC3 [6]) [%] | anticancer activity in comparison with cisplatin, soft agar, breast cancer cell line (MDAMB231 [3]) | anticancer activity in comparison with cisplatin, soft agar, prostate cancer cell line (PC3 [4]) | viability at 0.0025 µM (MDAMB231 [8]) [%] | 3D sphere count of MDAMB231 (MDAMB231 [8]; drug 0.0025 uM) | 3D sphere count of MDAMB231 (MDAMB231 [8]; drug 0.025 uM) | 3D sphere count of MDAMB231 (MDAMB231 [8]; drug 0.25 uM) | 3D sphere count of MDAMB231 (MDAMB231 [8]; drug 2.5 uM) | 3D sphere count of MDAMB231 (MDAMB231 [8]; drug 25 uM) | 3D sphere count of PC3 (PC3 [9]; drug 0.0025 uM) | 3D sphere count of PC3 (PC3 [9]; drug 0.025 uM) | 3D sphere count of PC3 (PC3 [9]; drug 0.25 uM) | 3D sphere count of PC3 (PC3 [9]; drug 2.5 uM) | 3D sphere count of PC3 (PC3 [9]; drug 25 uM) | other results
4 | N.N.[Cl][Pt][Cl] [Cisplatin, reference compound] | 4.45 |  |  |  | 4.51 | 33.78 | 25.13 |  |  |  |  |  |  |  |  |  |  |  |  |  | pIC50 (MDAMB231 [3]): 4.45; pIC50 (PC3 [4]): 4.46; % inhibition of ALDH on Breast Cancer Cell line (MDAMB231) after 48 hrs [7]: 26.45%; 3D sphere count of MDAMB231 (MDAMB231 [8]; drug 250 uM): 28(±3) and 26(±3)
